According to PubChem BioAssay (NCI):
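Interpolation was linear, between the two tested concentrations surrounding the appropriate level; five concentrations were tested over 48 hours in 96-well plates. The concentration for 50% growth inhibition is given as GI50. Definition used: TGI = concentration required for complete inhibition of growth.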

Experiments:
Test in all cases: DTP human tumour cell line panel, 48 h; in the data active means GI50 below about 0.43 µM; inactive means the rest
[1] = test system: HT29 colon
[2] = test system: ACHN renal
[3] = test system: NCI-H522 lung
[4] = test system: SNB-19 CNS
[5] = test system: UACC-257 melanoma
[6] = test system: MOLT-4 leukemia
[7] = test system: HOP-62 NSCLC
[8] = test system: SR leukemia
[9] = test system: 786-0 renal
[10] = test system: SNB-75 CNS
[11] = test system: CCRF-CEM leukemia
[12] = test system: MDA-MB-435
[13] = test system: SK-MEL-5 melanoma
[14] = test system: NCI/ADR-RES ovarian
[15] = test system: DU-145 prostate
[16] = test system: HCC-2998 colon
[17] = test system: K-562 leukemia
[18] = test system: M14 melanoma
[19] = test system: MALME-3M melanoma
[20] = test system: UO-31 renal
[21] = test system: HCT-15 colon
[22] = test system: KM12 colon
[23] = test system: LOX IMVI melanoma
[24] = test system: U251 CNS
[25] = test system: SK-MEL-28 melanoma
[26] = test system: CAKI-1 renal
[27] = test system: NCI-H226 lung
[28] = test system: NCI-H460 lung
[29] = test system: MCF7 breast
[30] = test system: HL-60(TB) leukemia
[31] = test system: SW-620 colon
[32] = test system: OVCAR-3 ovarian
[33] = test system: HCT-116 colon
[34] = test system: OVCAR-8 ovarian
[35] = test system: BT-549 breast
[36] = test system: SN12C renal
[37] = test system: OVCAR-4 ovarian
[38] = test system: OVCAR-5 ovarian
[39] = test system: RXF 393 renal
[40] = test system: T-47D breast
[41] = test system: SK-OV-3 ovarian
[42] = test system: HOP-92 NSCLC
[43] = test system: UACC-62 melanoma
[44] = test system: A498 renal
[45] = test system: RPMI-8226 leukemia
[46] = test system: SF-268 CNS
[47] = test system: SF-539 CNS
[48] = test system: SF-295 CNS
[49] = test system: IGROV1 ovarian
[50] = test system: TK-10 renal
[51] = test system: HS 578T breast
[52] = test system: COLO 205 colon
[53] = test system: PC-3 prostate
[54] = test system: NCI-H23 lung
[55] = test system: EKVX NSCLC
[56] = test system: A549 NSCLC
[57] = test system: MDA-MB-231 breast
[58] = test system: SK-MEL-2 melanoma
[59] = test system: MDA-N

CN(C)CCn1cc(-c2ccc3c(Nc4ccc(CC(=O)Nc5cccc(F)c5)cc4)ncnc3c2)cn1
3.55 µM: TGI [29]
2.49 µM: TGI [28]
3.39 µM: TGI [46]
3.26 µM: TGI [18]
4.26 µM: TGI [38]
3.48 µM: TGI [32]
2.87 µM: TGI [9]
1.97 µM: TGI [22] | TGI [47]
4.85 µM: TGI [30]
3.35 µM: TGI [57]
3.22 µM: TGI [3] | TGI [52]
6.41 µM: TGI [49]
3.45 µM: TGI [24]
3.46 µM: TGI [56]
4.21 µM: TGI [50]
3.02 µM: TGI [23] | TGI [25]
3.16 µM: TGI [1]
7.92 µM: TGI [53]
5.39 µM: TGI [4]
5.93 µM: TGI [45]
4.98 µM: TGI [54]
> 10 µM: TGI [2] | TGI [6] | TGI [7] | TGI [8] | TGI [10] | TGI [11] | TGI [12] | TGI [13] | TGI [14] | TGI [17] | TGI [19] | TGI [20] | TGI [21] | TGI [27] | TGI [35] | TGI [41] | TGI [42] | TGI [43] | TGI [44] | TGI [48] | TGI [51] | TGI [55] | TGI [58]
4.54 µM: TGI [40]
2.91 µM: TGI [31]
2.72 µM: TGI [33]
3.64 µM: TGI [36]
inactive: GI50 [1] 1.29 µM | GI50 [2] 4.24 µM | GI50 [3] 1.32 µM | GI50 [4] 1.34 µM | GI50 [5] 1.84 µM | GI50 [6] 2.51 µM | GI50 [7] > 10 µM | GI50 [8] 1.53 µM | GI50 [9] 1.42 µM | GI50 [12] 2.86 µM | GI50 [13] > 10 µM | GI50 [14] > 10 µM | GI50 [15] 1.67 µM | GI50 [16] 1.77 µM | GI50 [17] 2.72 µM | GI50 [18] 1.49 µM | GI50 [19] 4.7 µM | GI50 [20] 5.67 µM | GI50 [21] 4.44 µM | GI50 [23] 1.33 µM | GI50 [24] 1.56 µM | GI50 [25] 1.61 µM | GI50 [26] 1.24 µM | GI50 [27] > 10 µM | GI50 [29] 1.21 µM | GI50 [30] 1.95 µM | GI50 [31] 1.05 µM | GI50 [32] 1.6 µM | GI50 [33] 1.26 µM | GI50 [34] 1.6 µM | GI50 [35] 4.78 µM | GI50 [36] 1.53 µM | GI50 [37] 1.53 µM | GI50 [38] 1.58 µM | GI50 [39] 1.35 µM | GI50 [40] 1.41 µM | GI50 [41] > 10 µM | GI50 [42] 6.27 µM | GI50 [43] 6.4 µM | GI50 [44] > 10 µM | GI50 [45] 2.32 µM | GI50 [46] 1.43 µM | GI50 [48] 2.95 µM | GI50 [49] 2.01 µM | GI50 [50] 1.62 µM | GI50 [51] 1.92 µM | GI50 [53] 1.75 µM | GI50 [54] 1.87 µM | GI50 [55] 5.89 µM | GI50 [56] 1.3 µM | GI50 [57] 1.55 µM | GI50 [58] > 10 µM
3.09 µM: TGI [37]
3.4 µM: TGI [26]
2.84 µM: TGI [39]
6.39 µM: TGI [34]
active: GI50 [10] 0.0472 µM | GI50 [11] 0.0178 µM | GI50 [22] 0.393 µM | GI50 [28] 0.087 µM | GI50 [47] 0.0918 µM | GI50 [52] 0.0559 µM
5.68 µM: TGI [5]
3.84 µM: TGI [16]
3.51 µM: TGI [15]

CCCCCOP(=O)(OCCCCC)C(NC(C)=O)(C(=O)OCC)C(F)(F)F (centres undefined)
> 100 µM: TGI [1] | TGI [59] | TGI [2] | TGI [3] | TGI [6] | TGI [7] | TGI [8] | TGI [10] | TGI [11] | TGI [12] | TGI [15] | TGI [16] | TGI [17] | TGI [18] | TGI [19] | TGI [20] | TGI [21] | TGI [24] | TGI [25] | TGI [29] | TGI [30] | TGI [33] | TGI [36] | TGI [40] | TGI [41] | TGI [43] | TGI [44] | TGI [45] | TGI [46] | TGI [47] | TGI [55] | TGI [57]

Nc1nc(Cl)nc2c1ncn2C1O[C@H](CO)[C@@H](O)[C@@H]1F (some centres undefined)
35.3 µM: TGI [39]
active: GI50 [2] 0.33 µM | GI50 [4] 0.216 µM | GI50 [6] 0.033 µM | GI50 [7] 0.239 µM | GI50 [8] 0.387 µM | GI50 [9] 0.092 µM | GI50 [11] 0.0281 µM | GI50 [13] 0.34 µM | GI50 [14] 0.0498 µM | GI50 [15] 0.332 µM | GI50 [16] 0.075 µM | GI50 [18] 0.0876 µM | GI50 [20] 0.156 µM | GI50 [26] 0.326 µM | GI50 [27] 0.329 µM | GI50 [28] 0.37 µM | GI50 [29] 0.185 µM | GI50 [30] 0.0305 µM | GI50 [33] 0.13 µM | GI50 [34] 0.0423 µM | GI50 [35] 0.091 µM | GI50 [36] 0.0668 µM | GI50 [42] 0.0653 µM | GI50 [43] 0.362 µM | GI50 [46] 0.229 µM | GI50 [56] 0.379 µM
0.486 µM: TGI [9]
0.292 µM: TGI [18]
14.3 µM: TGI [44]
4.8 µM: TGI [42]
> 37.9 µM: TGI [47]
> 32.4 µM: TGI [15]
> 54 µM: TGI [46]
37.5 µM: TGI [27]
> 100 µM: TGI [1] | TGI [3] | TGI [4] | TGI [5] | TGI [8] | TGI [10] | TGI [11] | TGI [12] | TGI [13] | TGI [14] | TGI [16] | TGI [17] | TGI [19] | TGI [21] | TGI [22] | TGI [23] | TGI [24] | TGI [25] | TGI [28] | TGI [29] | TGI [31] | TGI [32] | TGI [33] | TGI [34] | TGI [36] | TGI [37] | TGI [38] | TGI [40] | TGI [41] | TGI [43] | TGI [45] | TGI [48] | TGI [49] | TGI [50] | TGI [51] | TGI [52] | TGI [53] | TGI [55] | TGI [56] | TGI [57] | TGI [58]
1.24 µM: TGI [20]
0.702 µM: TGI [35]
inactive: GI50 [10] 2.25 µM | GI50 [12] 0.485 µM | GI50 [17] 3.79 µM | GI50 [19] 43.4 µM | GI50 [21] 4.73 µM | GI50 [22] 29.7 µM | GI50 [23] 0.468 µM | GI50 [24] 0.442 µM | GI50 [25] > 100 µM | GI50 [31] 0.888 µM | GI50 [32] > 100 µM | GI50 [37] > 100 µM | GI50 [38] 3 µM | GI50 [39] 1.48 µM | GI50 [40] 6.94 µM | GI50 [41] 0.761 µM | GI50 [44] 0.682 µM | GI50 [45] > 31.5 µM | GI50 [47] 3.64 µM | GI50 [48] 2.87 µM | GI50 [49] > 73.5 µM | GI50 [51] > 94.2 µM | GI50 [52] 0.523 µM | GI50 [53] > 24.6 µM | GI50 [55] 1.51 µM | GI50 [58] > 100 µM
20.6 µM: TGI [7]
0.14 µM: TGI [30]
